Measured values reported in patent US11584758B2, “RIP1K inhibitors” (Rigel Pharmaceuticals, Inc., priority 2020, dated 2023).

What was measured:
[1] = Brain free fraction in vitro; type: in vitro ADME; conditions: rodent brain in vitro
Excerpt: (§1) Certain embodiments of the invention provide for compound, compounds or compositions thereof to traverse the blood-brain barrier. […] Brain penetration may be assessed by evaluating brain/plasma ratio (B/P) as measured through in vivo pharmacokinetic studies in rodents and determining free fraction in rodent brain in vitro. […] Without being limited to theory, it is believed that compounds with higher brain/plasma partition ratios may be more pharmacologically active against neurological disorders. Other methods for assessing brain penetration are known to persons of ordinary skill in the art. See, for example, Liu, X. et al., J. Pharmacol. Exp. Therap., 325:349-56, 2008. […]. In this method, the passive membrane permeability (Papp) and the P-gp (P-glycoprotein) substrate efflux potential are determined using a MDCKII-MDR1 cell line as an in vitro model of the effective permeability of a compound through the BBB.
Brain free fraction is a predictive marker for assessing potential for potential therapeutics in the CNS. See, Read K. D.; Braggio S. Assessing brain free fraction in early drug discovery. Expert. Opin. Drug. Metab. Toxicol. 2010, 6, 337-344.
Determination of brain free fraction is known such that those of skill in the art could determine the brain free fraction for additional compounds disclosed herein. See, Srinivas, Nithya et al. “Clinical Pharmacokinetics and Pharmacodynamics of Drugs in the Central Nervous System.” Clinical pharmacokinetics vol. 57, 9 (2018): 1059-1074. doi:10.1007/s40262-018-0632-y.

[2] = Brain/plasma ratio from in vivo pharmacokinetic studies; conditions: rodent, brain and plasma; in vivo pharmacokinetic studies in rodents; read-out: B/P ratio (brain/plasma ratio)
Excerpt: as §1

RIPK1 = RIPK1 (Homo sapiens (Human), UniProt Q13546); experiment: RIPK1 ADP-Glo kinase biochemical assay; conditions: statement in words
Sequence of RIPK1 (Q13546 whole entry, species assumed): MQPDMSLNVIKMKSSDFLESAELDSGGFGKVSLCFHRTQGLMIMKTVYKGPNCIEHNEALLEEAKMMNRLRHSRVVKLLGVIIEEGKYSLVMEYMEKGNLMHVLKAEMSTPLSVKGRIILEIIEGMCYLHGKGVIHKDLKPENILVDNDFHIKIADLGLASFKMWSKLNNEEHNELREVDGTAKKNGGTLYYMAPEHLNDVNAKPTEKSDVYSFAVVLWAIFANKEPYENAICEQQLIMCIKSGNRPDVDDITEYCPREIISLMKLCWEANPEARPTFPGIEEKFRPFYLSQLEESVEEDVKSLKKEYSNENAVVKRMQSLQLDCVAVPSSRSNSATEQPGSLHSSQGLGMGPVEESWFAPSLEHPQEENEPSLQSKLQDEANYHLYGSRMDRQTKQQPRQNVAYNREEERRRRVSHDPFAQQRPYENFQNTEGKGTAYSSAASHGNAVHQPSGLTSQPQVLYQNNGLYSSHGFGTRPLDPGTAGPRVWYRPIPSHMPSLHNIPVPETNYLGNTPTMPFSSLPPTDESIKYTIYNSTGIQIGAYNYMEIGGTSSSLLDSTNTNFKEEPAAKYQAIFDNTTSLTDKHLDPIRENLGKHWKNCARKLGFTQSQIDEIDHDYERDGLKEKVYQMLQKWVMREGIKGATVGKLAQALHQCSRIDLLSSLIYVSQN

fraction unbound [1] | Kp [2] | RIP1K inhibitory activity (RIPK1) | Compound
0.027 | – | – | CN1C(=O)[C@@H](NC(=O)c2cc(Oc3ccccc3)ccn2)COc2ccc(C#CC(C)(C)O)nc21 [Compound I-18, (S)—N-(7-(3-hydroxy-3-methylbut-1-yn-1-yl)-5-methyl-4-oxo-2,3,4,5-tetrahydropyrido[3,2b][1,4]oxazepin-3-yl)-4-phenoxypicolinamide]
0.0089 | – | – | CN1C(=O)[C@@H](NC(=O)c2cc(Oc3ccccc3)ccn2)COc2ccc(C#CC(C)(N)C(F)(F)F)nc21 (stereo partly drawn) [Compound I-46, N-((3S)-7-(3-Amino-4,4,4-trifluoro-3-methylbut-1-yn-1-yl)-5-methyl-4-oxo-2,3,4,5-tetrahydropyrido[3,2-b][1,4]oxazepin-3-yl)-4-phenoxypicolinamide]
0.017 | 1.6 | – | CN1C(=O)[C@@H](NC(=O)c2cc(Oc3ccccc3)ccn2)COc2ccc(C#CC3COC3)nc21 [Compound I-44, (S)—N-(5-methyl-7-(oxetan-3-ylethynyl)-4-oxo-2,3,4,5-tetrahydropyrido[3,2-b][1,4]oxazepin-3-yl)-4-phenoxypicolinamide]
0.0057 | – | – | CN1C(=O)[C@@H](NC(=O)c2cc(Oc3ccccc3)ccn2)COc2ccc(C#CC(O)C(F)(F)F)nc21 (stereo partly drawn) [Compound I-33, N-((3S)-5-methyl-4-oxo-7-(4,4,4-trifluoro-3-hydroxybut-1-yn-1-yl)-2,3,4,5-tetrahydropyrido[3,2-b][1,4]oxazepin-3-yl)-4-phenoxypicolinamide]
0.0093 | – | – | CN1C(=O)[C@@H](NC(=O)c2cc(Oc3ccccc3)ccn2)CCc2ccc(C#CC(C)(O)C(F)(F)F)nc21 (stereo partly drawn) [Compound I-56, N-((7S)-9-Methyl-8-oxo-2-(4,4,4-trifluoro-3-hydroxy-3-methylbut-1-yn-1-yl)-6,7,8,9-tetrahydro-5H-pyrido[2,3-b]azepin-7-yl)-4-phenoxypicolinamide]
0.0184 | 0.44 | – | CN1C(=O)[C@@H](NC(=O)c2cc(Oc3ccccc3)ccn2)CCc2ccc(C#CC3COC3)nc21 [Compound I-58, (S)—N-(9-Methyl-2-(oxetan-3-ylethynyl)-8-oxo-6,7,8,9-tetrahydro-5H-pyrido[2,3-b]azepin-7-yl)-4-phenoxypicolinamide]
– | – | exhibiting RIP1K inhibitory activity | CN1C(=O)[C@@H](NC(=O)c2cc(Oc3ccccc3)ccn2)COc2cc(Br)cnc21 [Compound I-6, (S)—N-(8-Bromo-5-methyl-4-oxo-2,3,4,5-tetrahydropyrido[3,2-b][1,4]oxazepin-3-yl)-4-phenoxypicolinamide]
0.0219 | – | – | CN1C(=O)[C@@H](NC(=O)c2cc(Oc3cccc(F)c3)ccn2)COc2ccc(C#CC(C)(C)O)nc21 [Compound I-21, (S)-4-(3-fluorophenoxy)-N-(7-(3-hydroxy-3-methylbut-1-yn-1-yl)-5-methyl-4-oxo-2,3,4,5-tetrahydropyrido[3,2-b][1,4]oxazepin-3-yl)picolinamide]
